Test results published in publication PMC7934981, “n-Propyl 6-amino-2,6-dideoxy-2,2-difluoro-β-D-glucopyranoside is a good inhibitor for the β-galactosidase from E. coli” (Medicinal Chemistry Research, 2021).
Like-named read-outs stand apart in the source and are kept apart here.

Legend:
[1] = molecular target: β-glucosidase from almonds; experiment: Glycosidase inhibition, p-nitrophenolate assay; format: biochemical; settings: mean of triplicate experiments, n.a. = no activity
Method: (§1) An in vitro evaluation of these compounds to act as an enzyme inhibitor using a panel of commercially available glycosidases was performed (Table 1) using p-nitrophenolate assays.
(§2) The corresponding p-nitrophenyl glycoside and the inhibitors were dissolved in NaOAc buffer (0.05 M, pH = 6.0) reaching final concentrations of 1.0, 1.11, 1.25, 1.43, 1.67, 2.0, 2.5, 3.33, 5.0, and 10 mM. Further dilutions (if necessary) were made in the ratios 1:60, 1:50, 1:40, 1:30, 1:20, 1:10, and 1:5. The ice-cooled solution of the enzymes was contained between 4.0 and 4.5 U/mL. The kinetic assays were performed in 96-well microtiter plates. The following solutions were pipetted per well: p-nitrophenyl glycoside (100 μL), enzyme (50 μL), inhibitor (100 μL), and standard (p-nitrophenol, 5 μL). Immediately after addition, UV/Vis absorption was measured at 42 °C and λ = 415 nm for 20 min with a single measurement interval of 50 s.

[2] = molecular target: T1, α-glucosidase from Baker’s yeast (Saccharomyces cerevisiae, UniProt P53341); experiment: Glycosidase inhibition, p-nitrophenolate assay; format: biochemical
T1 construct: purchased
T1 sequence (P53341 whole entry): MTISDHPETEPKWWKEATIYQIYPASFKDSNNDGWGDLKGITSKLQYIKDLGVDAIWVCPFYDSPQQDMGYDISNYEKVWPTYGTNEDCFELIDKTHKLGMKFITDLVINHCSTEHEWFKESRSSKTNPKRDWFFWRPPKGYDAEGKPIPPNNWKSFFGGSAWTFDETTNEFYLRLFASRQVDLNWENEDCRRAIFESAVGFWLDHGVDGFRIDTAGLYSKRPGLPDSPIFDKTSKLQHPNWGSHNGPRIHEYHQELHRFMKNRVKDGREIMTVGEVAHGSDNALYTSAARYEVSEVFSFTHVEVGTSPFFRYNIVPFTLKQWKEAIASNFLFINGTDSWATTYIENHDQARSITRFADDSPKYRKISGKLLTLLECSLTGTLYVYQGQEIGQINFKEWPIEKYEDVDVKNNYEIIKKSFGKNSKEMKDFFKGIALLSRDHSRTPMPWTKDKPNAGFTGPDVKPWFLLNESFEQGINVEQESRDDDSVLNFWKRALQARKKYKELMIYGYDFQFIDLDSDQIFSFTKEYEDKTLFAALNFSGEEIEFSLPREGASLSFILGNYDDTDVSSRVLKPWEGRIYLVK
Method: as §1, §2

[3] = molecular target: T2, α-galactosidase from green coffee beans (Coffea arabica, UniProt Q42656); experiment: Glycosidase inhibition, p-nitrophenolate assay; format: biochemical; settings: mean of triplicate experiments
T2 construct: purchased
T2 sequence (Q42656 16-378): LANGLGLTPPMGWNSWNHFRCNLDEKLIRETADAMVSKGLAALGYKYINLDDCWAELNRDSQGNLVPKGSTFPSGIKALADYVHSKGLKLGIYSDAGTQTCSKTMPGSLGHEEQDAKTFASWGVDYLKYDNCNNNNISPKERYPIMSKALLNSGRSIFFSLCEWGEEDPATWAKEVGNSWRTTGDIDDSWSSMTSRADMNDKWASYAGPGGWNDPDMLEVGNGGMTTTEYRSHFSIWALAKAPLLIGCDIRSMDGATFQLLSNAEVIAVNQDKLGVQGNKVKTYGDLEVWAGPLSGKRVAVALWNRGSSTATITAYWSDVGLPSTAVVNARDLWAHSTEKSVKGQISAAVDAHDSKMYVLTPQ
Method: as §1, §2

[4] = molecular target: T3, β-galactosidase from E. coli (Escherichia coli, UniProt P00722); experiment: Glycosidase inhibition, p-nitrophenolate assay; format: biochemical; settings: mean of triplicate experiments
T3 construct: purchased
T3 sequence (P00722 2-1024 limits assumed): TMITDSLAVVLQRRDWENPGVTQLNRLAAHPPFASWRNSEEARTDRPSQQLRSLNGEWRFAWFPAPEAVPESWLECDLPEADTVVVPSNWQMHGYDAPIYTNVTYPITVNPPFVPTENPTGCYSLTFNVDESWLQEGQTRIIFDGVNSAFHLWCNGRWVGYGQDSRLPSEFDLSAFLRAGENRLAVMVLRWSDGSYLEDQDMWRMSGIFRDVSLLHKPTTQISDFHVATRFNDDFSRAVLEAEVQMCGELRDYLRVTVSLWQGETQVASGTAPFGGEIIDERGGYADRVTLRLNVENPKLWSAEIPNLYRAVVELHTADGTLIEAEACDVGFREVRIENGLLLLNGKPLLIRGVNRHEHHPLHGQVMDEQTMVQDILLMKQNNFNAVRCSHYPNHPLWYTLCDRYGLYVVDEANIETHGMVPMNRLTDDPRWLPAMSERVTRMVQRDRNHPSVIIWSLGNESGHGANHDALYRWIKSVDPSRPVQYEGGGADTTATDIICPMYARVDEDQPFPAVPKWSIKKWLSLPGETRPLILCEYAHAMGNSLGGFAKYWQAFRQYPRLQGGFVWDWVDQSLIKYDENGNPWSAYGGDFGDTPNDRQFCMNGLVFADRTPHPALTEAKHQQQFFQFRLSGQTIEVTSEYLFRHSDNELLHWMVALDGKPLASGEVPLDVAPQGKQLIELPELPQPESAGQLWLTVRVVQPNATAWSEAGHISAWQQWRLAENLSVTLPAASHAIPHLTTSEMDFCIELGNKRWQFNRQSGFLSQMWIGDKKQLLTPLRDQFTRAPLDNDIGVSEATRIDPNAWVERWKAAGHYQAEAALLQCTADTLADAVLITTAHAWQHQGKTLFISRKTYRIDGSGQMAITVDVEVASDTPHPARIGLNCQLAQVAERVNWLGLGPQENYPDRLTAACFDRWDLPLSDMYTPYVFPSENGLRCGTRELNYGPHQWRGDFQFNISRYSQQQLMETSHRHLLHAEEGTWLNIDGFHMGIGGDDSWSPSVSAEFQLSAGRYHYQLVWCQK
Method: as §1, §2

[5] = Cytotoxicity, sulforhodamine B (SRB) assay, cancer cell panel; format: cell-based, human; settings: for EC50 at 3 days: as restated in the conclusion, human cancer cell lines, read-out: EC50, cytotoxicity (SRB assays); for IC50 at 3 days: panel of 15 human cancer cell lines, no significant cytotoxicity
Method: (§3) Low or absent cytotoxicity is a mandatory requirement for subsequent therapeutic use of the compounds as glycosidase inhibitors. Therefore, their cytotoxicity was determined.
(§4) The cell lines were obtained from Department of oncology (Martin-Luther-University Halle-Wittenberg). Cultures were maintained as monolayers in RPMI 1640 medium with L-glutamine (Capricorn Scientific GmbH, Ebsdorfergrund, Germany) supplemented with 10% heat inactivated fetal bovine serum (Sigma-Aldrich Chemie GmbH, Steinheim, Germany) and penicillin/streptomycin (1%, Capricorn Scientific GmbH, Ebsdorfergrund, Germany) at 37 °C in a humidified atmosphere with 5% CO2.
(§5) The cytotoxicity of the compounds was evaluated using the SRB (Kiton-Red S, ABCR) micro culture colorimetric assay using […] cells in 96-well plates with the seeding of the cells on day 0 applying appropriate cell densities to prevent confluence of the cells during the period of the experiment. On day 1, the cells were treated with six different concentrations (1, 3, 7, 12, 20, and 30 μM); thereby, the final concentration of DMSO was always < 0.5%, generally regarded as nontoxic to the cells. On day 4, the supernatant medium was discarded; the cells were fixed with 10% trichloroacetic acid. After another day at 4 °C, the cells were washed in a strip washer and dyed with the SRB solution (100 μL, 0.4% in 1% acetic acid) for about 20 min to be followed by washing of the plates (four times, 1% acetic acid) and air-drying overnight. Furthermore, tris base solution (200 μL, 10 mM) was added to each well and absorbance was measured at λ = 570 nm employing a reader (96-wells, Tecan Spectra, Crailsheim, Germany).

[6] = test system: panel of commercially available glycosidases; experiment: Glycosidase panel, type of inhibition and selectivity (p-nitrophenolate assays); format: biochemical; settings: panel of five glycosidases
Method: as §1, §2

[7] = Cytotoxicity, sulforhodamine B (SRB) assay, nonmalignant cells; format: cell-based, mouse; settings: NIH 3T3 fibroblasts (nonmalignant); for IC50 at 3 days: nonmalignant NIH 3T3 mouse fibroblasts, no significant cytotoxicity; for EC50 at 3 days: mouse, as restated in the conclusion, NIH 3T3, read-out: EC50, cytotoxicity (SRB assays)
Method: as §3, §4, §5

[8] = p-nitrophenolate assay, mean of triplicate experiments, read-out: Ki, α-glucosidase from Baker’s yeast

SMILES | Ki [1] | Ki [2] | Ki [3] | Ki [4] | EC50 at 3 days [5] | IC50 at 3 days [5] | Ki [2, 8] | selectivity among the glycosidases [6] | IC50 at 3 days [7] | EC50 at 3 days [7]
OCCN1C[C@H](O)[C@@H](O)[C@H](O)[C@H]1CO [Miglitol, reference compound] | 0.21 ± 0.05 µM | 9.92 ± 0.14 µM | 13.9 ± 0.15 µM | 0.16 ± 0.06 µM | – | – | – | – | – | –
CCCO[C@@H]1O[C@H](CN)[C@@H](O)[C@H](O)C1(F)F [compound 8, n-Propyl 6-amino-2,6-dideoxy-2,2-difluoro-β-D-glucopyranoside] | 1.76 ± 0.13 µM | – | 3.81 ± 0.57 µM | 0.5 ± 0.09 µM | > 50 µM | > 50 µM | 1.83 ± 0.16 µM | nonselective inhibitor | > 50 µM | > 50 µM
CCCO[C@@H]1O[C@H](CN)[C@@H](O)C(F)(F)[C@H]1O [compound 16, n-Propyl 6-amino-3,6-dideoxy-3,3-difluoro-β-D-ribo-hexopyranoside] | – | – | 4.3 ± 0.24 µM | 2.16 ± 0.93 µM | > 50 µM | > 50 µM | 4.13 ± 0.26 µM | – | > 50 µM | > 50 µM
